The source made the active and inactive calls. The rule behind the calls is not given here.
Assays:
[1] = target: 5-hydroxytryptamine receptor 7 (Homo sapiens, UniProt P34969); test: Displacement of [3H]5-HT from human 5-HT7 receptor expressed in CHO cells; format: cell-based
[2] = target: T1, 5-hydroxytryptamine receptor 2B (Homo sapiens, UniProt P41595); test: Displacement of [3H]mesulergine from human 5-HT2B receptor expressed in HEK293 cells; format: cell-based
[3] = tested on: Mus musculus; test: Reversal of 5-CT-induced hypothermic effect in po dosed mouse assessed as minimum effective dose; format: functional; details: for minimal effective dose: read-out: MED
[4] = target: T2, Muscarinic acetylcholine receptor M5 (Homo sapiens, UniProt P08912); test: Binding affinity to muscarinic M5 receptor (unknown origin)
T2 sequence (P08912 whole entry): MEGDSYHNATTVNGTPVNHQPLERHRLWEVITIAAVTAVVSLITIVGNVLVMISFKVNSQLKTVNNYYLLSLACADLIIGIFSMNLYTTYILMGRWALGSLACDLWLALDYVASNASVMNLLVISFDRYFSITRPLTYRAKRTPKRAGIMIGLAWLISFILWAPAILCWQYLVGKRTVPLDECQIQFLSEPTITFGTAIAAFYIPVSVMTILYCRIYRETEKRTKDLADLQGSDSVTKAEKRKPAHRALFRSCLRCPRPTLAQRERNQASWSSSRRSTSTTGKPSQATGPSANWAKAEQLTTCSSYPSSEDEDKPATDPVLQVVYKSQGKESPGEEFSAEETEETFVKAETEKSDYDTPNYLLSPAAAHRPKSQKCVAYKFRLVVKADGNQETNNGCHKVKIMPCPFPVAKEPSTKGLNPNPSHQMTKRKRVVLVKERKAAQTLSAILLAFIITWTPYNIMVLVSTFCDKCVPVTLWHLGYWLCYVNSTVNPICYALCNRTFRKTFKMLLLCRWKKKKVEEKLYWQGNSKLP

[5] = target: T3, Adrenergic receptor alpha-1 (Homo sapiens, UniProt P35348+P25100+P35368); test: Binding affinity to alpha1-adrenergic receptor (unknown origin)
T3 sequence (P35348 whole entry): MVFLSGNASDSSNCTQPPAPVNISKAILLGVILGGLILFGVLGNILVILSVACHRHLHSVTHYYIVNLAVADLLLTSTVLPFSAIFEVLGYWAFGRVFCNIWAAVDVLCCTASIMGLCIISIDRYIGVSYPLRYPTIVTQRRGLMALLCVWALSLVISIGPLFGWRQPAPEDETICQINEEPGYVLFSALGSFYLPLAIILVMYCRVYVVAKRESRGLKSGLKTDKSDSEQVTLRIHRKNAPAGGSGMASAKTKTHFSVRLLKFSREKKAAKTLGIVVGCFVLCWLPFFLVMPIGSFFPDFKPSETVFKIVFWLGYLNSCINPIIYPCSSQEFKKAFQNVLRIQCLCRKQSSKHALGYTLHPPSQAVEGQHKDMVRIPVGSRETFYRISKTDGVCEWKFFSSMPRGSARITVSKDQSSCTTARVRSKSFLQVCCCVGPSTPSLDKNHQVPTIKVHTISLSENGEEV
T3 sequence (P25100 whole entry): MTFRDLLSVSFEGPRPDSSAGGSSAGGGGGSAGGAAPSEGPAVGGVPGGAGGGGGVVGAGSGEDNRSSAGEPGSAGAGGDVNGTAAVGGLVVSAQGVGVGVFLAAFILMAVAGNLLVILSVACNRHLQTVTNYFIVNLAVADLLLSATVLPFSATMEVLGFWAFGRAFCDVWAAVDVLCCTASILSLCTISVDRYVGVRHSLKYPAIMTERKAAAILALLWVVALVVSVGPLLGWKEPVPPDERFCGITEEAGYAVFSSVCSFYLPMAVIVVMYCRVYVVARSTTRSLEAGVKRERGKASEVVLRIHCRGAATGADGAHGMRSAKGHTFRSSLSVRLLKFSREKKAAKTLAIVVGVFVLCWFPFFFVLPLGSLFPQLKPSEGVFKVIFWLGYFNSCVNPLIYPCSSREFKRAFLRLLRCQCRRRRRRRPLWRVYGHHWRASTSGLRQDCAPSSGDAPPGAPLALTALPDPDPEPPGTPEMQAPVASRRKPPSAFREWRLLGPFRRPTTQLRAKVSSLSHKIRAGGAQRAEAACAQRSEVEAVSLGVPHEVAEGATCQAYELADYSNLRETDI
T3 sequence (P35368 whole entry): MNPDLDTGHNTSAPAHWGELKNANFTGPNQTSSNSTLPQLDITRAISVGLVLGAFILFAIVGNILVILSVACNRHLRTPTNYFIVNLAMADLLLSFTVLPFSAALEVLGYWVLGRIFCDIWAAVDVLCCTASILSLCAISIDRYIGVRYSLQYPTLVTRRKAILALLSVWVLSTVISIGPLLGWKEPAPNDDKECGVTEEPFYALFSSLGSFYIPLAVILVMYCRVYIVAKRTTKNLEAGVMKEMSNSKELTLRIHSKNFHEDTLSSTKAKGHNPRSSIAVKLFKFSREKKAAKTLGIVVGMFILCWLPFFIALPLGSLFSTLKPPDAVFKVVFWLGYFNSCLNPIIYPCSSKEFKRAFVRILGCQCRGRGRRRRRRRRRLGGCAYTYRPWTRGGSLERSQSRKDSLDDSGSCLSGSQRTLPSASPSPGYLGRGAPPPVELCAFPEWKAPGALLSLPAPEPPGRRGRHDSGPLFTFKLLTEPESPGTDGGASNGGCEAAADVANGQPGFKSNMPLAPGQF

[6] = target: T1, 5-hydroxytryptamine receptor 2B; test: Antagonist activity at human 5-HT2B receptor expressed in HEK293 cells assessed as [3H]PI metabolism; format: cell-based
[7] = target: 5-hydroxytryptamine receptor 2A (Homo sapiens, UniProt P28223); test: Binding affinity to serotonin 5-HT2A receptor (unknown origin)
[8] = target: D(2) dopamine receptor (Homo sapiens, UniProt P14416); test: Binding affinity to dopamine D2 receptor (unknown origin)
[9] = target: T4, 5-hydroxytryptamine receptor 2C (Homo sapiens, UniProt P28335); test: Binding affinity to serotonin 5-HT2C receptor (unknown origin)
T4 sequence (P28335 whole entry): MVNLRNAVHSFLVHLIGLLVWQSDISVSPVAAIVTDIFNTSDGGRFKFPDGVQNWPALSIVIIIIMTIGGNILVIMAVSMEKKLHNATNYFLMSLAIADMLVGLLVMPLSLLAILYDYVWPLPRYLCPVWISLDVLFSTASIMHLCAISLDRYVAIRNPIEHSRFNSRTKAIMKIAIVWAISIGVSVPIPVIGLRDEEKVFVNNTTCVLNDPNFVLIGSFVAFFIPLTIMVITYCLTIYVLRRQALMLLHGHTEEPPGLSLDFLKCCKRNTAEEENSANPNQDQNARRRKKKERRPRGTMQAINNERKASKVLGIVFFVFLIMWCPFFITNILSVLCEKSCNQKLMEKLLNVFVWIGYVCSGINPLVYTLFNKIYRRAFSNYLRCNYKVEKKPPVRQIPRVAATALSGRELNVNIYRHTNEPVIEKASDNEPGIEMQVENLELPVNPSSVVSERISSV

[10] = tested on: Cavia porcellus; test: Suppression of 5-HT-induced dural protein extravasation in po dosed Hartley guinea pig; format: functional, organism-based
[11] = tested on: Cavia porcellus; test: Suppression of 5-HT-induced dural protein extravasation in Hartley guinea pig at 10 mg/kg, po; format: functional, organism-based; set-up: dose 10 mg/kg

T1 sequence (P41595 whole entry): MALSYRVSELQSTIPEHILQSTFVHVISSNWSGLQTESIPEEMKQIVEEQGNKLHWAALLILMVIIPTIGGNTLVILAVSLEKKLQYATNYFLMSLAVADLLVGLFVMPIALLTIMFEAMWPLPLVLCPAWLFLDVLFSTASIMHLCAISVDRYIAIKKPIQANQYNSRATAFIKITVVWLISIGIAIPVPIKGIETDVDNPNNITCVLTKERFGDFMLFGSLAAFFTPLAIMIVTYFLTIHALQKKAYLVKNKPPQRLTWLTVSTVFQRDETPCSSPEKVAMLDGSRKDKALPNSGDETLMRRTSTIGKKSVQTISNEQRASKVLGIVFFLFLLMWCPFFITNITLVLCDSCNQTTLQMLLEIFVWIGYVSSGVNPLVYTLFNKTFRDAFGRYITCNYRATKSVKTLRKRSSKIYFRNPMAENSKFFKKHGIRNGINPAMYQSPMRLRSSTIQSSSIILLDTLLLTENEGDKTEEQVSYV
Chain of 5-hydroxytryptamine receptor 7 (P34969 whole entry): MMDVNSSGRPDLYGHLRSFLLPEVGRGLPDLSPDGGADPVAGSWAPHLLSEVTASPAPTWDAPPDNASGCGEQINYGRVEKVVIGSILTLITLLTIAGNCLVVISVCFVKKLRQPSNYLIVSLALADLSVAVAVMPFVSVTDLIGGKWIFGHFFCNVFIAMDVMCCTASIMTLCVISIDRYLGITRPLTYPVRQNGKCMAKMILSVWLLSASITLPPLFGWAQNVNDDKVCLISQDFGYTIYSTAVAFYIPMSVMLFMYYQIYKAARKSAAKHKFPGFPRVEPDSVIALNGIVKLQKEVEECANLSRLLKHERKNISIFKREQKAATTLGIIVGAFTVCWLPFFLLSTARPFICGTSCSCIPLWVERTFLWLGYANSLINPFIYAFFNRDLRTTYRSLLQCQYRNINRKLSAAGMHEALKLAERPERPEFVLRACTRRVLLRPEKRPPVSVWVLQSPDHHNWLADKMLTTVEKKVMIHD
Chain of 5-hydroxytryptamine receptor 2A (P28223 whole entry): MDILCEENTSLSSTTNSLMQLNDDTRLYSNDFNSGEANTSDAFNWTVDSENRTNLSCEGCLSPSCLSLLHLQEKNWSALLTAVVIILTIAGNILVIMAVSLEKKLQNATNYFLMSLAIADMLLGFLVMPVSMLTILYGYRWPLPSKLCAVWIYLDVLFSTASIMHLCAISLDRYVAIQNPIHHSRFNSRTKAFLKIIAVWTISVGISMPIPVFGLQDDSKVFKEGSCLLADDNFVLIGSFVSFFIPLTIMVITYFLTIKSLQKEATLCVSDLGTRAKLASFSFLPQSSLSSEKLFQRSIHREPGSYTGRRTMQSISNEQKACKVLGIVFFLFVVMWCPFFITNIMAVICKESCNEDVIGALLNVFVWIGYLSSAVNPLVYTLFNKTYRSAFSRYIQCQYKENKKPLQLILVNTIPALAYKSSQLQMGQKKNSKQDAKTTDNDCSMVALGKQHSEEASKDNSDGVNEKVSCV
Chain of D(2) dopamine receptor (P14416 whole entry): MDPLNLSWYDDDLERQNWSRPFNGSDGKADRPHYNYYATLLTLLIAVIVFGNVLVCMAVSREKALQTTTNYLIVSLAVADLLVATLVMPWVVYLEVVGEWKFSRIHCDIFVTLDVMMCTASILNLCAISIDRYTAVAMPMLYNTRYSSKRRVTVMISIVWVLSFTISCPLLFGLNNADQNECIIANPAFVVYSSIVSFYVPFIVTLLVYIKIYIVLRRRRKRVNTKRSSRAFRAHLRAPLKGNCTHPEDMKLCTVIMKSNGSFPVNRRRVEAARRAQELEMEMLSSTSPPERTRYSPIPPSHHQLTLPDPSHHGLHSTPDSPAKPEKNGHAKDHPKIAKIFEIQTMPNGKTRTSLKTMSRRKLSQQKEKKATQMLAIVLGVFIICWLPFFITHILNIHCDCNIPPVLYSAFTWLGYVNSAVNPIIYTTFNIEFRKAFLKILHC

Ki [1] [nM] | Ki [2] [nM] | SMILES | minimal effective dose [3] [mg/kg] | also measured
> 100 | 31 | CCCCC1(O)c2ccccc2-c2ccc(C(=O)N=C(N)N)cc21 (stereo not drawn) |  | 
0.76 | 2 | COCC1(OC)c2ccccc2-c2ccc(C(=O)N=C(N)N)cc21.Cl (stereo not drawn) | > 30 | 
 |  | CC1(O)c2ccccc2-c2ccc(C(=O)N=C(N)N)cc21.Cl (stereo not drawn) | 30 | 
1.3 | 9.1 | NC(N)=NC(=O)c1ccc2c(c1)C1(CCOCC1)c1ccccc1-2 |  | 
 | 5.1 | Cl.NC(N)=NC(=O)c1ccc2c(c1)C1(CCCO1)c1ccccc1-2 (stereo not drawn) | 3 | Ki [4]: > 1000 nM; Ki [5]: > 1000 nM; IC50 [6]: 55 nM; Ki [7]: > 1000 nM; Ki [8]: > 1000 nM; Ki [9]: 152 nM
4.9 | 0.51 | NC(N)=NC(=O)c1ccc2c(c1)C1(CC1)c1ccccc1-2 |  | MED [3]: inactive
 | 2.7 | NC(N)=NC(=O)c1ccc2c(c1)[C@]1(CCCO1)c1ccccc1-2 |  | IC50 [6]: 35 nM; inhibition [10]: Dose-dependent effect; inhibition [11]: Active
1.8 | 1.7 | Cl.NC(N)=NC(=O)c1ccc2c(c1)C1(CCCC1)c1ccccc1-2 | ≤ 100 | 
 | 5.1 | NC(N)=NC(=O)c1ccc2c(c1)[C@@]1(CCCO1)c1ccccc1-2 |  | IC50 [6]: 73 nM; inhibition [10]: Dose-dependent effect; inhibition [11]: Active
1.2 | 41 | CCC1(O)c2ccccc2-c2ccc(C(=O)N=C(N)N)cc21 (stereo not drawn) |  | 
0.6 | 4.8 | CCC1(OC)c2ccccc2-c2ccc(C(=O)N=C(N)N)cc21.Cl (stereo not drawn) | 10 | 
1.4 | 3.3 | COC1(C)c2ccccc2-c2ccc(C(=O)N=C(N)N)cc21.Cl (stereo not drawn) | 30 | 
